# Measurements taken from patent US10167262B2, “Herbicidal substituted 3-arylpyrazoles” (FMC CORPORATION, priority 2014, dated 2019).
# Columns and labels:
# Experiment in all cases: Test E pre-/postemergence greenhouse test, plant response rating 0-100
# Format in all cases: in vivo
# [1] = system: Brazilian crabgrass (Digitaria horizontalis); conditions: Postemergence, scale 0 to 100
# Procedure, shortened: (§1)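 Visual control score, 0–100 relative to untreated plants, recorded 14–21 days after spraying. Treatments: preemergence on silt loam seedbeds and postemergence at the 1- to 4-leaf stage, with compound in surfactant-containing solvent.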
# [2] = system: arrowleaf sida (Sida rhombifolia); conditions: for Plant response rating, Arrowleaf Sida: Postemergence; for Arrowleaf Sida plant response rating: Preemergence
# Procedure, shortened: as §1
# corn (Zea mays) = conditions: scale 0 to 100; for Plant response rating, Corn: Postemergence; for Corn plant response rating: Preemergence
# Procedure, shortened: as §1
# [3] = system: dayflower (Virginia (VA) dayflower, Commelina virginica); conditions: scale 0 to 100; for Plant response rating, Dayflower, VA: Postemergence; for Dayflower, VA plant response rating: Preemergence
# Procedure, shortened: as §1
# [4] = system: fall panicum (Panicum dichotomiflorum); conditions: scale 0 to 100; for Plant response rating, Panicum, Fall: Postemergence; for Panicum, Fall plant response rating: Preemergence
# Procedure, shortened: as §1
# [5] = system: field bindweed (Convolvulus arvensis); conditions: scale 0 to 100; for Plant response rating, Field Bindweed: Postemergence; for Field Bindweed plant response rating: Preemergence
# Procedure, shortened: as §1
# [6] = system: hairy beggarticks (Bidens pilosa); conditions: scale 0 to 100; for Plant response rating, Beggarticks: Postemergence; for Beggarticks plant response rating: Preemergence
# Procedure, shortened: as §1
# [7] = system: palmer pigweed (Amaranthus palmeri); conditions: scale 0 to 100; for Plant response rating, Pigweed, Palmer: Postemergence; for Pigweed, Palmer plant response rating: Preemergence
# Procedure, shortened: as §1
# [8] = system: sandbur (southern sandbur, Cenchrus echinatus); conditions: scale 0 to 100; for Plant response rating, Sandbur: Postemergence; for Sandbur plant response rating: Preemergence
# Procedure, shortened: as §1
# soybean (Glycine max) = conditions: scale 0 to 100; for Plant response rating, Soybean: Postemergence; for Soybean plant response rating: Preemergence
# Procedure, shortened: as §1
# [9] = system: waterhemp (common waterhemp, Amaranthus rudis); conditions: scale 0 to 100; for Plant response rating, Waterhemp: Postemergence; for Waterhemp plant response rating: Preemergence
# Procedure, shortened: as §1
# [10] = system: wild poinsettia (Euphorbia heterophylla); conditions: scale 0 to 100; for Plant response rating, Poinsettia, Wild: Postemergence; for Poinsettia, Wild plant response rating: Preemergence
# Procedure, shortened: as §1
structure (smiles),measurement,setting,value
O=C(c1ccccc1)c1cn(S(=O)(=O)CCl)nc1-c1cc(Cl)cc(Cl)c1 [Compound 1],"Plant response rating, Crabgrass, Brazil",[1]; 31 g ai/ha,0
same,"Plant response rating, Crabgrass, Brazil",[1]; 62 g ai/ha,0
same,"Plant response rating, Crabgrass, Brazil",[1]; 125 g ai/ha,0
same,"Plant response rating, Crabgrass, Brazil",[1]; 250 g ai/ha,0
same,"Plant response rating, Crabgrass, Brazil",[1]; 500 g ai/ha,0
same,"Plant response rating, Arrowleaf Sida","[2]; 31 g ai/ha, scale 0 to 100",80
same,"Plant response rating, Arrowleaf Sida","[2]; 62 g ai/ha, scale 0 to 100",90
same,"Plant response rating, Arrowleaf Sida","[2]; 125 g ai/ha, scale 0 to 100",95
same,"Plant response rating, Arrowleaf Sida","[2]; 250 g ai/ha, scale 0 to 100",95
same,"Plant response rating, Arrowleaf Sida","[2]; 500 g ai/ha, scale 0 to 100 (0 no effect, 100 complete control)",98
same,Arrowleaf Sida plant response rating,"[2]; 31 g ai/ha, scale 0 to 100",20
same,Arrowleaf Sida plant response rating,"[2]; 62 g ai/ha, scale 0 to 100",25
same,Arrowleaf Sida plant response rating,"[2]; 125 g ai/ha, scale 0 to 100",25
same,Arrowleaf Sida plant response rating,"[2]; 250 g ai/ha, scale 0 to 100",20
same,Arrowleaf Sida plant response rating,"[2]; 500 g ai/ha, scale 0 to 100",75
same,"Plant response rating, Corn",corn (Zea mays); 31 g ai/ha,0
same,"Plant response rating, Corn",corn (Zea mays); 62 g ai/ha,0
same,"Plant response rating, Corn",corn (Zea mays); 125 g ai/ha,0
same,"Plant response rating, Corn",corn (Zea mays); 250 g ai/ha,0
same,"Plant response rating, Corn",corn (Zea mays); 500 g ai/ha,0
same,Corn plant response rating,corn (Zea mays); 31 g ai/ha,0
same,Corn plant response rating,corn (Zea mays); 62 g ai/ha,0
same,Corn plant response rating,corn (Zea mays); 125 g ai/ha,0
same,Corn plant response rating,corn (Zea mays); 250 g ai/ha,0
same,Corn plant response rating,corn (Zea mays); 500 g ai/ha,0
same,"Plant response rating, Dayflower, VA",[3]; 31 g ai/ha,0
same,"Plant response rating, Dayflower, VA",[3]; 62 g ai/ha,0
same,"Plant response rating, Dayflower, VA",[3]; 125 g ai/ha,0
same,"Plant response rating, Dayflower, VA",[3]; 250 g ai/ha,0
same,"Plant response rating, Dayflower, VA",[3]; 500 g ai/ha,0
same,"Dayflower, VA plant response rating",[3]; 31 g ai/ha,0
same,"Dayflower, VA plant response rating",[3]; 125 g ai/ha,0
same,"Dayflower, VA plant response rating",[3]; 250 g ai/ha,0
same,"Dayflower, VA plant response rating",[3]; 500 g ai/ha,0
same,"Plant response rating, Panicum, Fall",[4]; 31 g ai/ha,0
same,"Plant response rating, Panicum, Fall",[4]; 62 g ai/ha,0
same,"Plant response rating, Panicum, Fall",[4]; 125 g ai/ha,0
same,"Plant response rating, Panicum, Fall",[4]; 250 g ai/ha,0
same,"Plant response rating, Panicum, Fall",[4]; 500 g ai/ha,0
same,"Panicum, Fall plant response rating",[4]; 31 g ai/ha,0
same,"Panicum, Fall plant response rating",[4]; 62 g ai/ha,0
same,"Panicum, Fall plant response rating",[4]; 125 g ai/ha,0
same,"Panicum, Fall plant response rating",[4]; 250 g ai/ha,0
same,"Panicum, Fall plant response rating",[4]; 500 g ai/ha,0
same,"Plant response rating, Field Bindweed",[5]; 31 g ai/ha,0
same,"Plant response rating, Field Bindweed",[5]; 62 g ai/ha,0
same,"Plant response rating, Field Bindweed",[5]; 125 g ai/ha,0
same,"Plant response rating, Field Bindweed",[5]; 250 g ai/ha,0
same,"Plant response rating, Field Bindweed",[5]; 500 g ai/ha,0
same,Field Bindweed plant response rating,[5]; 31 g ai/ha,0
same,Field Bindweed plant response rating,[5]; 62 g ai/ha,0
same,Field Bindweed plant response rating,[5]; 125 g ai/ha,0
same,Field Bindweed plant response rating,[5]; 250 g ai/ha,0
same,Field Bindweed plant response rating,[5]; 500 g ai/ha,0
same,"Plant response rating, Beggarticks",[6]; 31 g ai/ha,30
same,"Plant response rating, Beggarticks",[6]; 62 g ai/ha,95
same,"Plant response rating, Beggarticks",[6]; 125 g ai/ha,98
same,"Plant response rating, Beggarticks",[6]; 250 g ai/ha,98
same,"Plant response rating, Beggarticks",[6]; 500 g ai/ha,98
same,Beggarticks plant response rating,[6]; 31 g ai/ha,0
same,Beggarticks plant response rating,[6]; 62 g ai/ha,0
same,Beggarticks plant response rating,[6]; 125 g ai/ha,0
same,Beggarticks plant response rating,[6]; 250 g ai/ha,35
same,Beggarticks plant response rating,[6]; 500 g ai/ha,35
same,"Plant response rating, Pigweed, Palmer",[7]; 31 g ai/ha,50
same,"Plant response rating, Pigweed, Palmer",[7]; 62 g ai/ha,25
same,"Plant response rating, Pigweed, Palmer",[7]; 125 g ai/ha,75
same,"Plant response rating, Pigweed, Palmer",[7]; 250 g ai/ha,70
same,"Plant response rating, Pigweed, Palmer",[7]; 500 g ai/ha,98
same,"Pigweed, Palmer plant response rating",[7]; 31 g ai/ha,0
same,"Pigweed, Palmer plant response rating",[7]; 62 g ai/ha,20
same,"Pigweed, Palmer plant response rating",[7]; 125 g ai/ha,25
same,"Pigweed, Palmer plant response rating",[7]; 250 g ai/ha,20
same,"Pigweed, Palmer plant response rating",[7]; 500 g ai/ha,100
same,"Plant response rating, Sandbur",[8]; 31 g ai/ha,0
same,"Plant response rating, Sandbur",[8]; 62 g ai/ha,0
same,"Plant response rating, Sandbur",[8]; 125 g ai/ha,0
same,"Plant response rating, Sandbur",[8]; 250 g ai/ha,0
same,"Plant response rating, Sandbur",[8]; 500 g ai/ha,0
same,Sandbur plant response rating,[8]; 31 g ai/ha,0
same,Sandbur plant response rating,[8]; 62 g ai/ha,0
same,Sandbur plant response rating,[8]; 125 g ai/ha,0
same,Sandbur plant response rating,[8]; 250 g ai/ha,20
same,Sandbur plant response rating,[8]; 500 g ai/ha,20
same,"Plant response rating, Soybean",soybean (Glycine max); 31 g ai/ha,0
same,"Plant response rating, Soybean",soybean (Glycine max); 62 g ai/ha,0
same,"Plant response rating, Soybean",soybean (Glycine max); 125 g ai/ha,0
same,"Plant response rating, Soybean",soybean (Glycine max); 250 g ai/ha,0
same,"Plant response rating, Soybean",soybean (Glycine max); 500 g ai/ha,0
same,Soybean plant response rating,soybean (Glycine max); 31 g ai/ha,0
same,Soybean plant response rating,soybean (Glycine max); 62 g ai/ha,0
same,Soybean plant response rating,soybean (Glycine max); 125 g ai/ha,0
same,Soybean plant response rating,soybean (Glycine max); 250 g ai/ha,0
same,Soybean plant response rating,soybean (Glycine max); 500 g ai/ha,0
same,"Plant response rating, Waterhemp",[9]; 31 g ai/ha,65
same,"Plant response rating, Waterhemp",[9]; 62 g ai/ha,90
same,"Plant response rating, Waterhemp",[9]; 125 g ai/ha,98
same,"Plant response rating, Waterhemp",[9]; 250 g ai/ha,98
same,"Plant response rating, Waterhemp",[9]; 500 g ai/ha,100
same,Waterhemp plant response rating,[9]; 31 g ai/ha,0
same,Waterhemp plant response rating,[9]; 62 g ai/ha,20
same,Waterhemp plant response rating,[9]; 125 g ai/ha,60
same,Waterhemp plant response rating,[9]; 250 g ai/ha,60
same,Waterhemp plant response rating,[9]; 500 g ai/ha,100
same,"Plant response rating, Poinsettia, Wild",[10]; 31 g ai/ha,0
same,"Plant response rating, Poinsettia, Wild",[10]; 62 g ai/ha,0
same,"Plant response rating, Poinsettia, Wild",[10]; 125 g ai/ha,0
same,"Plant response rating, Poinsettia, Wild",[10]; 250 g ai/ha,0
same,"Plant response rating, Poinsettia, Wild",[10]; 500 g ai/ha,0
same,"Poinsettia, Wild plant response rating",[10]; 31 g ai/ha,0
same,"Poinsettia, Wild plant response rating",[10]; 62 g ai/ha,0
same,"Poinsettia, Wild plant response rating",[10]; 125 g ai/ha,0
same,"Poinsettia, Wild plant response rating",[10]; 500 g ai/ha,0
